Data set [1] concerns HCT116 (colon cancer cell line). Put plainly: PI-flow cytometry cell cycle analysis. Conditions: for phase of cell cycle arrest: PI-flow cytometry; for DNA content (%) G0-G1 / DNA content (%) G2/M / DNA content (%) Pre-G1 / DNA content (%) S: at MTT-IC50 of the agent. It counts as cell-based. In general terms: Flow cytometry measures light scatter and fluorescence of single cells or particles in a stream.

Data set [2] shares this test system. Put plainly: Annexin V-FITC apoptosis/necrosis study. Format: cell-based. Conditions: at MTT-IC50 of the agent.
In data set [3] the test system is A431 (squamous skin) cancer cell line. Put plainly: MTT antiproliferative assay, A431. It counts as cell-based.
In data set [4] the test system is MCF7 (breast) cancer cell line. Kind of data set: MTT antiproliferative assay, MCF7. It counts as cell-based.
For data set [5], the system named is HCT116 (colon) cancer cell line. Put plainly: MTT antiproliferative assay, HCT116. Format: cell-based.
Data set [6] relates to RPE1 (normal human immortalized retinal pigment epithelial cell line). Put plainly: MTT assay against normal RPE1 cells. It counts as cell-based. Conditions: RPE-1, read-out: IC50 ± SE, RPE1. For orientation: Formazan colour is commonly taken as a measure of viable cells.
Data set [7] addresses T1, VEGFR-2 (Homo sapiens, UniProt P35968). Kind of data set: VEGFR-2 Western blot in MCF7. It counts as cell-based.
Data set [8] addresses T1, VEGFR-2. Kind of data set: VEGFR-2 Western blot in HCT116. Format: cell-based. For orientation: Immunoblotting shows a protein as a band on a membrane.
The target in data set [9] is T2, EGFR (Homo sapiens, UniProt P00533). Put plainly: EGFR Western blot in MCF7. Format: cell-based.
T2 sequence (P00533 25-1210): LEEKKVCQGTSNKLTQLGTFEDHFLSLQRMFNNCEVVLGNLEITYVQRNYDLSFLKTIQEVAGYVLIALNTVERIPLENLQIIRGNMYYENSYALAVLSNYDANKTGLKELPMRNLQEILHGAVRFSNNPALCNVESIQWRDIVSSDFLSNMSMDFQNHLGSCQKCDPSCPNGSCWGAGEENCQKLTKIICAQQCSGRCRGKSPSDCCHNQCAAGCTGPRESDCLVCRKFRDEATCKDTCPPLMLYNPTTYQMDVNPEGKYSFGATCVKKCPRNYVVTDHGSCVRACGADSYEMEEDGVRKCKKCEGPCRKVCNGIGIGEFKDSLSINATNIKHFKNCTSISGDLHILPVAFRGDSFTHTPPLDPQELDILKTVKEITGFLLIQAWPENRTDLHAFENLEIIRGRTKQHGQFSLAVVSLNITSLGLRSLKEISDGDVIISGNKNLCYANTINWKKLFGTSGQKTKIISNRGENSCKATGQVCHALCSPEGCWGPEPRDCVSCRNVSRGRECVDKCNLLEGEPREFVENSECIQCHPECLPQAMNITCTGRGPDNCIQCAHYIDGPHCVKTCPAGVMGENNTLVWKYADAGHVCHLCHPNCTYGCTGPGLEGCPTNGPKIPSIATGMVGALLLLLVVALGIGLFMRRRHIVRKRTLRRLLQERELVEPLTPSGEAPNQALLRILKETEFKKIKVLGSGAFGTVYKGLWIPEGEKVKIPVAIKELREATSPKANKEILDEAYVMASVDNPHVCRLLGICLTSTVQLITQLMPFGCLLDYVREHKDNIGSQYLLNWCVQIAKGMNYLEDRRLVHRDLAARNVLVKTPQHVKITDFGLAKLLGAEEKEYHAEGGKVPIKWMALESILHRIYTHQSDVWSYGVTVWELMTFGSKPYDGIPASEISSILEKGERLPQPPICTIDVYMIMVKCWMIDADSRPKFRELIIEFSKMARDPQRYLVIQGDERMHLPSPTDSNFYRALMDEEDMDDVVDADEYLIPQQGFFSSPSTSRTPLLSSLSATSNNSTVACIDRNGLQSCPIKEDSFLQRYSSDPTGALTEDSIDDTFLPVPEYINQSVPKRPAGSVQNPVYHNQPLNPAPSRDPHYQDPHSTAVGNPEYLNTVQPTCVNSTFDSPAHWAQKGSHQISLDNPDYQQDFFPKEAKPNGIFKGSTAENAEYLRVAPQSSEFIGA
Data set [10] concerns the target T2, EGFR. Put plainly: EGFR Western blot in HCT116. Format: cell-based.
Another data set concerns the target T3, COX-1 (Ovis aries, UniProt P05979).
T3 sequence (P05979 25-600): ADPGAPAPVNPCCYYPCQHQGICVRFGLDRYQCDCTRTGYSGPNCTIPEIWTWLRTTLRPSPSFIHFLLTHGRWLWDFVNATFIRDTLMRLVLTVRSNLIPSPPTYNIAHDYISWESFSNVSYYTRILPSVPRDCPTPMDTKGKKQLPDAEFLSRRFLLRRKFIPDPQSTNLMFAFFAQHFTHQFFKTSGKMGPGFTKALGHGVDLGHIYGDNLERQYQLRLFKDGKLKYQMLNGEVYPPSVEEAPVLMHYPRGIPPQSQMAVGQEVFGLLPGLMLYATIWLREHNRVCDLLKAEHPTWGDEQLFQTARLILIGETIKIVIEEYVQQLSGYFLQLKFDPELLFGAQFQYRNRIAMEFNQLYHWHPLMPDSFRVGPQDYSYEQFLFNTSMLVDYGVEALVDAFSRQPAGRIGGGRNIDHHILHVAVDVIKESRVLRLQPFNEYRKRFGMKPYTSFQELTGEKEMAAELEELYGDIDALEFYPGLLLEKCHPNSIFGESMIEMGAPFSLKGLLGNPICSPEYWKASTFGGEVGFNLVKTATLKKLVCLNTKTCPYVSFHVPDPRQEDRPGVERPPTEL
Put plainly: COX-1 inhibitor screening kit. It counts as biochemical.

The target in another data set is T4, COX-2 (Homo sapiens, UniProt P35354).
T4 sequence (P35354 18-604): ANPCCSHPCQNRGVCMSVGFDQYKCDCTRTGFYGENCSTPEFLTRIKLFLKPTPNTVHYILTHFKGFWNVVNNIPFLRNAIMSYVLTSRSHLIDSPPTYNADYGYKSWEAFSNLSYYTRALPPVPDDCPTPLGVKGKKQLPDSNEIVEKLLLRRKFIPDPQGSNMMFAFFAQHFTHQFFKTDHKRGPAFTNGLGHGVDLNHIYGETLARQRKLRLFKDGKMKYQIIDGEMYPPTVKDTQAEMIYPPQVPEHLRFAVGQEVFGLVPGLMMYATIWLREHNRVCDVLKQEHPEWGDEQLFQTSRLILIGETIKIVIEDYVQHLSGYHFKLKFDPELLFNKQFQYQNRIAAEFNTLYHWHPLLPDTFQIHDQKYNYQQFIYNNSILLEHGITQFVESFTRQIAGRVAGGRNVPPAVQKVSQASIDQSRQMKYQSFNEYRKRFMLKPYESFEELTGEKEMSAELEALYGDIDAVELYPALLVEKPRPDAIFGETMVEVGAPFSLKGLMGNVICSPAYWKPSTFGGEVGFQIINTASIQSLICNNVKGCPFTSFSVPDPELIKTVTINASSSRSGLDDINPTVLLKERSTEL
Put plainly: COX-2 inhibitor screening kit. It counts as biochemical.

The subject of data set [11] is SARS-CoV-2 (hCoV-19/Egypt/NRC-03/2020). The settings on record: SARS-CoV-2 / VERO-E6.

T1 sequence (P35968 20-1356): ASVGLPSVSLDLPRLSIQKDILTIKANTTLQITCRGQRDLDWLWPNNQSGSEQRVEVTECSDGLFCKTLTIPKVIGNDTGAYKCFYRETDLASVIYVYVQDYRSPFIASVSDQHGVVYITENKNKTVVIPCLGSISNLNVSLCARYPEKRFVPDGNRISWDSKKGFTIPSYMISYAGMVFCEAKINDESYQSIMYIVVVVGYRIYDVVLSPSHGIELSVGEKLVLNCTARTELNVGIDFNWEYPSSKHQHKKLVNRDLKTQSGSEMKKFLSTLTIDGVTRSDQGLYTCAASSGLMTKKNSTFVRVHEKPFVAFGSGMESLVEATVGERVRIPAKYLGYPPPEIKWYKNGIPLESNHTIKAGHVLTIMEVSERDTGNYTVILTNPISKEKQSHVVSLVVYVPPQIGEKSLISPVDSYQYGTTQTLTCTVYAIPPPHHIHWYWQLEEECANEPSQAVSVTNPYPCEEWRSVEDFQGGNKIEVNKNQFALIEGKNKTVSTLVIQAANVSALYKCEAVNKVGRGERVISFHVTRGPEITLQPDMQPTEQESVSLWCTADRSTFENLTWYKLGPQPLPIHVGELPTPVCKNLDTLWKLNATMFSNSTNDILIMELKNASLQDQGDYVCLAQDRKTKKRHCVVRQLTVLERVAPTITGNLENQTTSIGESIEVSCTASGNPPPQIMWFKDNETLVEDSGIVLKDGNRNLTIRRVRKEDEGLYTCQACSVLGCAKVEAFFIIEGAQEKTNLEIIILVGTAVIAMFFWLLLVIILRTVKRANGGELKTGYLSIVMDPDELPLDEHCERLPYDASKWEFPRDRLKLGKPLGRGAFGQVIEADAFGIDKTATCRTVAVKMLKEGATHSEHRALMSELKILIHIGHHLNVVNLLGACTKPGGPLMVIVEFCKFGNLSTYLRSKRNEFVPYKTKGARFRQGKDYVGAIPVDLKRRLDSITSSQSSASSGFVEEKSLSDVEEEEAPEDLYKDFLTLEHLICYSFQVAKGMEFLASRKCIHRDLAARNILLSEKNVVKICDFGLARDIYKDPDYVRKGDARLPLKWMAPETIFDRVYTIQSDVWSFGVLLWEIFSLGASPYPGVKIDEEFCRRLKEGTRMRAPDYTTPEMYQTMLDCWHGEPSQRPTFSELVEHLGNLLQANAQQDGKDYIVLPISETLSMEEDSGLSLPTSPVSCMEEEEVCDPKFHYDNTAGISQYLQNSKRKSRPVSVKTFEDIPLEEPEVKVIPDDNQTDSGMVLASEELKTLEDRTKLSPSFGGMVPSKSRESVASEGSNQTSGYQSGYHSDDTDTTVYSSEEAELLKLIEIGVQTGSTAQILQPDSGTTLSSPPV

For `CCN(CC)CCNC(=O)c1c(C)[nH]c(/C=C2\C(=O)Nc3ccc(F)cc32)c1C` [Sunitinib, reference compound], in data set [1], the “phase of cell cycle arrest” value is reported as “S-phase”, the “DNA content (%) G0-G1” value was found to be 46.18%, the “DNA content (%) G2/M” value was found to be 7.59% and the “DNA content (%) Pre-G1” value amounted to 31.69%. Moreover, the “DNA content (%) S” value in [1] came to 46.23%. Further, in [2], the “Apoptosis (%) Early” value was 2.54%, the “Apoptosis (%) Late” value is 21.69%, the “Apoptosis (%) Total” value is listed as 31.69% and the “Necrosis (%)” value turned out to be 7.46%.

Regarding `CC(=O)Oc1ccccc1C(=O)N1C/C(=C\c2ccc(Cl)cc2)C(=O)/C(=C/c2ccc(Cl)cc2)C1` [Compound 5c, 2-[3,5-Bis((E)-4-chlorobenzylidene)-4-oxopiperidine-1-carbonyl]phenyl acetate], in [3] (Homo sapiens, A-431, 72 h, read-out: IC50 ± SE, A431), the IC50 (usually the point on the concentration scale where inhibition reaches its midpoint) came out at 1210 ± 110 nM. Further, the “SI (selectivity index), A431” value in data set [3] (IC50 of RPE1 relative to that of A431) amounted to 7.3. The IC50 in data set [4] (Homo sapiens, MCF7, 72 h, read-out: IC50 ± SE, MCF7) turned out to be 2810 ± 260 nM. In addition, the “SI (selectivity index), MCF7” value in data set [4] (IC50 of RPE1 relative to that of MCF7) came to 3.15. Also, the half-maximal inhibitory concentration (IC50) in data set [5] (Homo sapiens, HCT-116, 72 h, read-out: IC50 ± SE, HCT116) came out at 986 ± 80 nM. Also, the “SI (selectivity index), HCT116” value in [5] (IC50 of RPE1 relative to that of HCT116) came to 8.96. Moreover, the IC50 in data set [6] stood at 8830 ± 680 nM. Also, in data set [1], the “phase of cell cycle arrest” value is “G1-phase”, the “DNA content (%) G0-G1” value is reported as 55.28%, the “DNA content (%) G2/M” value is 3.59% and the “DNA content (%) Pre-G1” value was 44.28%. Besides, in [1], the “DNA content (%) S” value was found to be 41.13%. For the same compound, in data set [2], the “Apoptosis (%) Early” value came to 2.29%, the “Apoptosis (%) Late” value is 28.58%, the “Apoptosis (%) Total” value came to 44.28% and the “Necrosis (%)” value is reported as 13.41%. For the same compound, at VEGFR-2 [7] (Western blot at MTT-IC50), the “VEGFR2 MCF7 % Inhibition” value stood at 59.5%. The “VEGFR2 MCF7 RQ (relative quantification)” value on VEGFR-2 [7] (Western blot at MTT-IC50, control RQ 3.725) is 1.51. The “VEGFR2 HCT116 % Inhibition” value on VEGFR-2 [8] (Western blot at MTT-IC50) is recorded as 73.3%. Further, the “VEGFR2 HCT116 RQ (relative quantification)” value on VEGFR-2 [8] (Western blot at MTT-IC50, control RQ 3.817) is listed as 1.02. The “EGFR MCF7 % Inhibition” value at EGFR [9] (Western blot at MTT-IC50) was found to be 85.6%. For the same compound, the “EGFR MCF7 RQ (relative quantification)” value on EGFR [9] (Western blot at MTT-IC50, control RQ 4.226) stood at 0.61. In addition, the “EGFR HCT116 % Inhibition” value at EGFR [10] (Western blot at MTT-IC50) worked out at 62.9%. The “EGFR HCT116 RQ (relative quantification)” value at EGFR [10] (Western blot at MTT-IC50, control RQ 4.0382) was found to be 1.5. Moreover, the 50% inhibitory concentration (IC50) at COX-1 was 271 nM. In addition, on COX-2, it took 2240 nM to reach half-maximal inhibition (IC50) and the “SI = IC50(COX-1)/IC50(COX-2)” value worked out at 0.121. In data set [11], the “SI = CC50/IC50” value is 1.7.

The values are drawn from article PMC8566089 (Bioorganic Chemistry, 2021).
